Measured values published in article PMC7435868, “Structure-Based Virtual Screening, Synthesis and Biological Evaluation of Potential FAK-FAT Domain Inhibitors for Treatment of Metastatic Cancer” (Molecules, 2020).

Columns and labels:
T47D = assay: Cell viability assay (CellTiter Glo), T47D; assay type: cell-based, human; conditions: Homo sapiens, T47D, 72 h, 72 h incubation, mean of independent triplicate experiments, read-out: In vitro anti-proliferative activity IC50, T47D ER+ PR+/- HER-
Procedure: (§1) The antiproliferative activity of compound I as well as its newly synthesised analogues (5a–i) was evaluated in vitro against the three human breast cancer cell lines MDA-MB-231 (TNBC), T47D (ER^+, HER^−), and BT474 (ER^+, HER^+) as well as a human pancreatic cancer cell line MIAPaCa2. The seeding of the corresponding cell lines started one day before incubation, which lasted for 72 h with the different concentrations of the tested compounds. CellTiter Glo reagent (25 μL) was added to the cell plate. The luminescence was analysed after 10 min using a PerkinElmer Envision instrument. The test compounds were used at ten different triplicate concentrations in half log increments up to 100 μM.

MDA-MB-231 [1] = assay: Preliminary in vitro profiling of virtual hits; assay type: cell-based, human
Excerpt: Approximately 210,000 small molecules from the SPECS virtual library of compounds were imported, rendered, and minimised using a MMFF94x force field and run in a virtual screening simulations programme using Glide SP within Maestro software (Glide, version 9.5, Schrödinger; http://www.schrodinger.com). These compounds underwent four stages of filtration including prefiltration of the non-drug-like compounds in accordance with Lipinski’s rules and excluding chemically unstable and potentially toxic groups. This was followed by high throughput virtual screening (HTVS), standard precision virtual screening (SPVS) and extra precision virtual screening (XPVS). Each compound was positioned in the chosen pocket, which was made up of the area surrounding the three amino acids Asp 1036, Ser 910, and Lys 1032 within a 12 A° radius and scored for electrostatic and van der Waals interactions as implemented in the Schrodinger virtual screening package (version 9.5). […] These 25 hits underwent preliminary in vitro profiling in the metastatic triple negative breast cancer (TNBC) cell line (MDA-MB-231) for antiproliferative and antimigratory properties.

[2] = Turbidimetric aqueous solubility; assay type: physicochemical; conditions: 37 °C, 2 h
Procedure: Both the estimated precipitation range (lower and upper bound) and a mid-range value were measured. Nicardipine and pyrene were used as control compounds.
The test compound was diluted in buffer to give a range of concentrations (1, 3, 10, 30, and 100 μM; final DMSO concentration 1%) and incubated at 37 °C for 2 hr.
The test compound (10 mM in DMSO) was serially diluted to give solutions of 0.1, 0.3, 1, and 3 mM in DMSO. Each test compound concentration was then further diluted 1 to 100 in buffer (typically 0.01 M phosphate buffered saline pH 7.4) so that the final DMSO concentration was 1%, and the final test compound concentrations were 1, 3, 10, 30, and 100 μM. The experiment was performed at 37 °C and each concentration was incubated in 7 replicate wells. The plates were incubated for 2 h at 37 °C before the absorbance was measured at 620 nm. Nicardipine and pyrene were included as control compounds. The solubility of nicardipine is pH dependent whereas the solubility of pyrene is pH independent.
An estimated precipitation range (lower and upper bound) and a calculated mid-range value were returned, along with any relevant comments, in the form of an Excel spreadsheet.

MDA-MB-231 cells [3] = assay: Boyden chamber migration; assay type: cell-based, human; conditions: 18 h Boyden chamber
Procedure: Migration was assessed utilising 24-well, transmembrane permeable support plates (Corning Lifesciences, Corning, New York, NY, USA) with 6.5 mm microporous membrane (8 μm pore size) inserts, each coated with 10 μg/mL fibronectin in sterile PBS. Inserts were placed into wells containing RPMI + 5% FCS (± treatments), before cells in serum-free RPMI were seeded into the top portion of each insert at a density of 50,000 cells/mL. Cells were then incubated at 37 °C and 5% CO2 for 18 h. After this migratory period was completed, cells were fixed to the underside of the inserts in 3.7% PFA in PBS and stained with 0.5% crystal violet solution. Resulting inserts were then imaged using a standard light microscope.

[4] = Microsomal metabolic stability
Procedure: Half-life (t1/2) values were measured at five time points.
Intrinsic clearance values (CLint) with standard error and t1⁄2 values were measured.
The final incubation volume was 50 μL. A minus cofactor control incubation was included for each compound tested where 0.1 M phosphate buffer pH 7.4 was added instead of NADPH (minus NADPH). Two control compounds were included with each species. All incubations were performed singularly for each test compound.
The reactions were stopped by transferring 20 μL of incubate to 60 μL methanol at the appropriate time points. The termination plates were centrifuged at 2500 rpm for 20 min at 4 °C to precipitate the protein.
Following protein precipitation, the sample supernatants were combined in cassettes of up to 4 compounds, the internal standard was added, and samples were analysed using Cyprotex generic LC-MS/MS conditions.
From a plot of ln peak area ratio (compound peak area/internal standard peak area) against time, the gradient of the line was determined.

MDA-MB-231 cells [5] = assay: Immunofluorescence of active FAK (FAK Y861) and vinculin; assay type: cell-based, human
Procedure: The resulting fixed cells were subsequently permeabilised with 0.2% Triton-X100 in PBS for 8 min. This was proceeded by a 40 min block in 10% normal goat serum (in 1% BSA in PBS) prior to 30 min primary antibody incubation. Both FAK^Y861 and vinculin antibodies were diluted to working concentration (1:100 and 1:200, respectively) in 1% BSA in PBS. […] Slides were viewed using a 63X oil immersion lens on a Leica DM IRE2 microscope (Leica Microsystems, Wetzlar, Germany).

hERG potassium channel = hERG potassium channel (Homo sapiens, UniProt Q12809); assay: hERG channel inhibition (IonWorks automated patch clamp, CHO-hERG cells)
Procedure: Mammalian cells expressing the hERG potassium channel were dispensed into 384-well planar arrays and hERG tail-currents measured by whole-cell voltage-clamping. A range of concentrations of the test compound was then added to the cells and a second recording of the hERG current was made. […] IC50 is delivered, standard error (SE IC50), and n (number of data points used to calculate IC50) for the test compound. The experiments were performed on an Ion Works TM automated patch clamp instrument (Molecular Devices LLC (San Jose, California, United States)), which simultaneously performs electrophysiology measurements for 48 single cells in a specialised 384-well plate (PatchPlateTM(manufacturer, city, state if USA or Canada, country)). All cell suspensions, buffers, and test compound solutions were at room temperature during the experiment.
The cells used were Chinese hamster ovary (CHO) cells stably transfected with hERG (cell-line obtained from Cytomyx, UK). A single-cell suspension was prepared in extracellular solution (Dulbecco’s phosphate buffered saline with calcium and magnesium pH 7.2) and aliquots added automatically to each well of a Patch Plate TM. The cells were then positioned over a small hole at the bottom of each well by applying a vacuum beneath the plate to form an electrical seal. The vacuum was applied through a single compartment common to all wells which was filled with intracellular solution (buffered to pH 7.2 with HEPES). The resistance of each seal was measured via a common ground-electrode in the intracellular compartment and individual electrodes placed into each of the upper wells.
Electrical access to the cell was then achieved by circulating a perforating agent, amphotericin B, underneath the PatchPlateTM. The pre-compound hERG current was then measured. An electrode was positioned in the extracellular compartment and a holding potential of −80 mV applied for 15 s. The hERG channels were then activated by applying a depolarising step to +40 mV for 5 s and then clamped at −50 mV for 4 s to elicit the hERG tail current, before returning to −80 mV for 0.3 s.
The Ion Works TM instrument automatically adds test compound dilutions to the upper wells of the PatchPlateTM. The test compound was left in contact with the cells for 300 s before recording currents using the same voltage-step protocol as in the pre-compound scan.
Each concentration was tested in 4 replicate wells on the PatchPlateTM (maximum of 24 data points). Filters were applied to ensure only acceptable cells were used to assess hERG inhibition.
For each replicate, the hERG response was calculated using the following equation:% hERG response = [Post-compound current (nA)/Pre-compound current (nA)] × 100(5)

[6] = tested on: MDA-MB-231, T47D, BT474, and MIAPaCa2; assay: Cell viability assay, statements across the four cell lines; assay type: cell-based, human; conditions: three human breast and one pancreatic cancer cell line, up to 100 μM
Procedure: as §1

MIAPaCa2 = assay: Cell viability assay (CellTiter Glo), MIAPaCa2; assay type: cell-based; conditions: Homo sapiens, MIA PaCa-2, 72 h incubation, mean of independent triplicate experiments, read-out: In vitro anti-proliferative activity IC50, MIAPaCa2
Procedure: as §1

MDA-MB-231 [7] = assay: Cell viability assay (CellTiter Glo), MDA-MB-231; assay type: cell-based; conditions: Homo sapiens, 72 h incubation, mean of independent triplicate experiments, read-out: In vitro anti-proliferative activity IC50, MDA-MB-231 ER- PR- HER-
Procedure: as §1

[8] = buffered aqueous solution (PBS pH 7.4, 1% DMSO)
[9] = human, pooled liver microsomes, pH 7.4
[10] = MDA-MB-231, 1 h serum stimulated

Sequence of hERG potassium channel (Q12809 whole entry): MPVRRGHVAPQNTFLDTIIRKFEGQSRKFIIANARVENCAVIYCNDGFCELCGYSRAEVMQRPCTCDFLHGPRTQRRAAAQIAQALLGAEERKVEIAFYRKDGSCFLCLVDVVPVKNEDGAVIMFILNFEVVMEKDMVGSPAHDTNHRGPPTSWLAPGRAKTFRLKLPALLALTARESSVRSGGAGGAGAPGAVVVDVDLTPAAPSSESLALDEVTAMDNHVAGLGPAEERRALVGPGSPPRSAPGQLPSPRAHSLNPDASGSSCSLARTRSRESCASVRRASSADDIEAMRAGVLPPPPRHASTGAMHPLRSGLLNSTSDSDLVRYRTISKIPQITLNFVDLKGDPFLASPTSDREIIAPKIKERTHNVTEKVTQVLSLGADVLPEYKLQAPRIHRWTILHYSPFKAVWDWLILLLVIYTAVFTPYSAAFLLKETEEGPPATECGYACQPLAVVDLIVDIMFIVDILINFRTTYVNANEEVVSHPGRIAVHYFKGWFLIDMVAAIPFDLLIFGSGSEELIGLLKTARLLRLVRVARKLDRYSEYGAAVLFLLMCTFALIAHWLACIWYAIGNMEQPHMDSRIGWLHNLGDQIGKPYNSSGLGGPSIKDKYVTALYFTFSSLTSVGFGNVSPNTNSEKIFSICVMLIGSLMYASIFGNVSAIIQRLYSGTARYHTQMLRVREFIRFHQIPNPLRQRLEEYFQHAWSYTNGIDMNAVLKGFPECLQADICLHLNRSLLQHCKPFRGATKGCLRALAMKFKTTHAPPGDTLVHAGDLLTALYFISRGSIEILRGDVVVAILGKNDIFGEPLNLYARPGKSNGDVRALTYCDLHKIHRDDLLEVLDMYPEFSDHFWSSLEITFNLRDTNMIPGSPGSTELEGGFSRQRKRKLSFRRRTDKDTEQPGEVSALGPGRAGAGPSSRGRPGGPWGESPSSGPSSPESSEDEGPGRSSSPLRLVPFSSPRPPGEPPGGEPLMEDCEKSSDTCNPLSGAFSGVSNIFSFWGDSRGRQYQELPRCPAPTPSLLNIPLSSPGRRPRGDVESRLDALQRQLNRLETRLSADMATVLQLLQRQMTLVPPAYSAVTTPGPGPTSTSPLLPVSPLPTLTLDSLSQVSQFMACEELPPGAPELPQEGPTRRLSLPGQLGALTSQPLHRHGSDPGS

Compound: CC(C)(C)c1ccc(C(CN)c2ccc(Cl)cc2)cc1 (centres unmarked) [Compound I]
- IC50 (T47D): 6.71 µM
- Antiproliferative and antimigratory properties (preliminary profiling) (MDA-MB-231 [1]): low micromolar antiproliferative and antimigratory properties exceeding those of chloropyramine (C4)
- Estimated Precipitation Range, Calculated Mid-Range [2, 8]: >100 µM
- Estimated Precipitation Range, Lower Bound [2, 8]: 100 µM
- Estimated Precipitation Range, Upper Bound [2, 8]: >100 µM
- Aqueous solubility (in words) ([2]; turbidimetric): high aqueous solubility
- Serum-stimulated migration (MDA-MB-231 cells [3]): significant reduction in serum-stimulated migration
- Compound Remaining (% of 0 min), 0 min ([4]; human liver microsomes, 0 min): 100 % of 0 min
- Compound Remaining (% of 0 min), 5 min ([4]; human liver microsomes, 5 min): 89.4 % of 0 min
- Compound Remaining (% of 0 min), 15 min ([4]; human liver microsomes, 15 min): 92.3 % of 0 min
- Compound Remaining (% of 0 min), 30 min ([4]; human liver microsomes, 30 min): 77.9 % of 0 min
- Compound Remaining (% of 0 min), 45 min ([4]; human liver microsomes, 45 min): 81.3 % of 0 min
- Compound Remaining (% of 0 min), Control ([4]; human liver microsomes, minus NADPH control, 45 min): 95.7 % of 0 min
- half-life at 3 μM [4, 9]: 2.53 h
- microsomal CLint at 3 μM [4, 9]: 9.1 µL/min/mg
- Number of focal adhesions/cell (MDA-MB-231 cells [5]; [10]): significant increase in focal adhesions
- Size of focal adhesions (MDA-MB-231 cells [5]; [10]): no effect on the size of focal adhesions
- Localisation of FAK to the cell periphery (MDA-MB-231 cells [5]; MDA-MB-231, 1 h serum stimulated, vs vehicle-only controls): increased localisation of FAK to the cell periphery
- Active FAK throughout the cytoplasm (MDA-MB-231 cells [5]; MDA-MB-231, versus PF271 treated cells): significantly more active FAK displayed throughout the cytoplasm
- IC50 (hERG potassium channel): 5.47 µM
- Anti-proliferative activity (in words) across the four cell lines [6]: low micromolar antiproliferative activity
- IC50 (MIAPaCa2): 5.66 µM
- IC50 (MDA-MB-231 [7]): 6.37 µM
